According to patent EP4810518A2, “ANTIBODY THAT BINDS ERBB-2 AND ERBB-3” (Merus B.V., priority 2017, dated 2018):

What was measured:
[1] = system: HER2 overexpressing cells (SK-BR-3, BT-474, N87); assay: In vitro drug combinations with PB4188 (checkerboard titrations, isobolograms); type: cell-based; settings: HRG in matrigel or HRG stress concentrations
Method: Moreover, combination with chemotherapeutic drugs and cyclin inhibitors were tested. Combinations were tested on HER2 overexpressing cells growing in the presence of HRG in matrigel (SK-BR-3 and BT-474) or in the presence of HRG stress concentrations (N87 and SK-BR-3 as described in proliferation assays). The inhibitory effect of drug combinations was tested by imaging or by measuring proliferation using Alamar Blue as described herein before. […] The extent of growth inhibition obtained with each combination was calculated. […] The inhibition values of the combination experiments were used by CHALICE™ Analyzer software to generate the isobolograms.

[2] = system: intracranial ST1360B PDX tumors
Excerpt: Mice carrying ST1360B tumors were supplemented with estrogen following tumor implantation. The tumor was washed with PBS and trimmed for residual connective tissues at the surface. The tumor was cut into small pieces and digested with Accutase and Collagenase IV to yield a suspension of single cells. The digestion was stopped by addition of media containing fetal bovine serum and the cell suspension was filtered through a 100 µm filter, washed in PBS and resuspended in PBS. The viability of the tumor cells was checked by trypan blue staining and the final concentration was 18 million viable cells/mL. The viability of total cells was greater than 80%. There was no differentiation between stromal or tumor cells and the solutions do also contain some cell debris. […] The cells were kept on ice until inoculation.
Mice were anaesthetized by hypnorm/midazolam (1 ml/100 g body weight) and placed in a stereotactic frame for fixation of the head. A longitudinal incision was made in the scalp exposing the calvarium. A hole was drilled in the skull 1.5 mm right of the sutura saggitalis and 0.5 mm posterior to the bregma using a microdrill. Ten µl of the cell suspension (180.000 cells) was injected at a depth of 2-2.5 mm at a rate of 60 nl/sec using a 100 µl syringe with a 25-gauge needle placed in a micro infusion pump. The needle was left for 3 minutes before being withdrawn. Bupivacaine (0.2 mg/100 g bodyweight) and Lidocaine (1 mg/100 g body weight) were administrated in the incision site for local anesthetic and the skin was closed with a suture. The mice were ear punched for identification and returned to their cages where they were monitored until fully recovered from the anesthesia. The mice were monitored at least twice per week (weight and clinical signs) after tumor inoculation and more often if clinical signs or weight loss was present.
Tumor development was monitored bi-weekly by T2-weighted MR imaging (axial and coronal planes). The first imaging session was 19 days after tumor inoculation. The animals were anesthetized during the MR imaging sessions (sevoflurane, 2-4% in ambient air supplemented with 100% O2 at approximately 4:1 ratio). Enrolment into study was based on two pathological MR scans showing tumor growth and a tumor volume of about 10-20 mm^3. Mice that meet the enrolment criteria were randomized into one of four groups. The first 32 mice that meet the inclusion criteria were enrolled into the study. Mice were randomized so all groups presented with the same mean tumor volume at treatment initiation.
Drugs were diluted in sterile saline before each dosing. Mice were placed under a heating lamp for approximately 5-10 minutes before injection of the test compound to make the procedure as quick and easy as possible. The mouse was placed on a tail restrain box and the test compound was dosed in the lateral tail vein as a single intravenous (i.v.) bolus dose. The dosing volume was 5.0mL/kg.
Tumor growth were monitored bi-weekly by T2-weighted MR imaging (axial and coronal planes) for the first two weeks after therapy initiation and weekly until 6 weeks after therapy. The animals were anesthetized during the MR imaging sessions (sevoflurane, 2-4% in ambient air supplemented with 100% O2 at approximately 4:1 ratio).
The brain with tumor was resected and preserved in 4% formaldehyde for 24-48 hours and transferred to 70% ethanol. The fixative: tissue ratio was at least 20:1.
Tumor volumes were measured on the images by drawing region of interests (ROIs) on the individual slices and calculating the volume of the ROIs.

Compound | Drug combination with PB4188 (isobologram analysis) [1] | also measured
Cc1nc(NC(=O)N2CCC[C@H]2C(N)=O)sc1-c1ccnc(C(C)(C)C(F)(F)F)c1 [BYL719] | synergistic | –
NC1(c2ccc(-c3nc4ccn5c(=O)[nH]nc5c4cc3-c3ccccc3)cc2)CCC1 [MK-2206] | synergistic | –
CO[C@H]1C[C@@H]2CC[C@@H](C)[C@@](O)(O2)C(=O)C(=O)N2CCCC[C@H]2C(=O)O[C@H]([C@H](C)C[C@@H]2CC[C@@H](OCCO)[C@H](OC)C2)CC(=O)[C@H](C)/C=C(\C)[C@@H](O)[C@@H](OC)C(=O)[C@H](C)C[C@H](C)/C=C/C=C/C=C/1C [everolimus] | synergistic | –
CS(=O)(=O)CCNCc1ccc(-c2ccc3ncnc(Nc4ccc(OCc5cccc(F)c5)c(Cl)c4)c3c2)o1 [lapatinib] | synergistic | –
CCOc1cc2ncc(C#N)c(Nc3ccc(OCc4ccccn4)c(Cl)c3)c2cc1NC(=O)/C=C/CN(C)C [neratinib] | synergistic | –
CC(=O)O[C@H]1C(=O)[C@@]2(C)[C@H]([C@H](OC(=O)c3ccccc3)[C@]3(O)C[C@H](OC(=O)[C@H](O)[C@@H](NC(=O)c4ccccc4)c4ccccc4)C(C)=C1C3(C)C)[C@]1(OC(C)=O)CO[C@@H]1C[C@@H]2O [paclitaxel] | synergistic | –
O=C(CCCCCCC(=O)Nc1ccccc1)NO [vorinostat] | synergistic | –
T-DM1 | – | Tumor growth by T2-weighted MRI ([2]; compared to vehicle treated mice): inhibited; mean tumor volume 10 days post therapy ([2]; compared to vehicle treated mice, p<0.05, Tukey): significantly smaller compared to vehicle treated mice; Brain edema score day 3 ([2]; individual mouse, scale 0-4 (0 no, 4 massive brain edema), day 3 post initiation of therapy): 0; median survival ([2]; post therapy initiation, T-DM1 10 mg/kg 4x qwk i.v., MCLA-128 25 mg/kg 4x twice wk i.v., vehicle 13 days): 19.5 days
